Data: patent US20140135310A1, “SULPHONAMIDE DERIVATIVES OF ALICYCLIC AMINES FOR THE TREATMENT OF CENTRAL NERVOUS SYSTEM DISEASES” (Adamed Sp. z o.o., priority 2011, published 2014)

What was measured:
[1] = target: T1, 5-HT1A receptor (rat hippocampus) (Rattus norvegicus, UniProt P19327); experiment: Radioligand binding assay, serotoninergic 5-HT1A receptors; settings: binding assay result in %, Table 5a;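 note: test compound at 1 µM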
T1 construct: hippocampus; from tissue; host or cells: rat hippocampus
T1 sequence (P19327 1-422): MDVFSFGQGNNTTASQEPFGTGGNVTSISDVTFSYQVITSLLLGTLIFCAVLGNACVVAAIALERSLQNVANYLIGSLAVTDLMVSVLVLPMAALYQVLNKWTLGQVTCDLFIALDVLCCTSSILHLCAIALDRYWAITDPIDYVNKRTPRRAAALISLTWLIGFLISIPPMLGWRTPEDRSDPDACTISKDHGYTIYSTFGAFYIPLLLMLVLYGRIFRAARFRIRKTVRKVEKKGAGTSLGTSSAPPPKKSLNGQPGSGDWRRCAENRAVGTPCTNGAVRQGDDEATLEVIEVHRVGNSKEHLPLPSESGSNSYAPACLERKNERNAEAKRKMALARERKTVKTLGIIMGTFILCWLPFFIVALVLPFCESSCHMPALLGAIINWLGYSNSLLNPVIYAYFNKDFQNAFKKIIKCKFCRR

[2] = target: dopaminergic receptors D3 (Homo sapiens, UniProt P35462); experiment: Radioligand binding assay, dopaminergic D3 receptors; settings: test compound 1×10^−6 M
dopaminergic receptors D3, sequence (P35462 whole entry): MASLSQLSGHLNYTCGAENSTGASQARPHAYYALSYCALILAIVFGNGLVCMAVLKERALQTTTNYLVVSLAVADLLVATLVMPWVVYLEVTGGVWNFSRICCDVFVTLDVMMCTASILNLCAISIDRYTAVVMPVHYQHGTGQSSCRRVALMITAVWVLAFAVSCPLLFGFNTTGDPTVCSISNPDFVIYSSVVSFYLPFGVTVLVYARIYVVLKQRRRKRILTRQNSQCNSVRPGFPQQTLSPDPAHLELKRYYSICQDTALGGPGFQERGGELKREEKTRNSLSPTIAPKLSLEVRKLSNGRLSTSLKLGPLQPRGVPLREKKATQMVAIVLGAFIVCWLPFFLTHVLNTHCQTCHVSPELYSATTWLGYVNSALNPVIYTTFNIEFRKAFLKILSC
Procedure, shortened: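 Competition radioligand binding at human D2, D3 and D4.4 receptors, detected by scintillation counting; nonspecific binding defined with excess unlabelled ligand. Results as percent inhibition of control specific binding; IC50 by Hill-equation nonlinear regression; Ki via Cheng-Prusoff, with radioligand KD from Scatchard plot.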

[3] = target: T2, serotonin transporter (SERT) (Homo sapiens, UniProt P31645); experiment: Radioligand binding assay, serotonin transporter (SERT); settings: binding assay, test compound 1×10^−6 M
T2 construct: expressed in transfected cells; host or cells: CHO cells
T2 sequence (P31645 whole entry): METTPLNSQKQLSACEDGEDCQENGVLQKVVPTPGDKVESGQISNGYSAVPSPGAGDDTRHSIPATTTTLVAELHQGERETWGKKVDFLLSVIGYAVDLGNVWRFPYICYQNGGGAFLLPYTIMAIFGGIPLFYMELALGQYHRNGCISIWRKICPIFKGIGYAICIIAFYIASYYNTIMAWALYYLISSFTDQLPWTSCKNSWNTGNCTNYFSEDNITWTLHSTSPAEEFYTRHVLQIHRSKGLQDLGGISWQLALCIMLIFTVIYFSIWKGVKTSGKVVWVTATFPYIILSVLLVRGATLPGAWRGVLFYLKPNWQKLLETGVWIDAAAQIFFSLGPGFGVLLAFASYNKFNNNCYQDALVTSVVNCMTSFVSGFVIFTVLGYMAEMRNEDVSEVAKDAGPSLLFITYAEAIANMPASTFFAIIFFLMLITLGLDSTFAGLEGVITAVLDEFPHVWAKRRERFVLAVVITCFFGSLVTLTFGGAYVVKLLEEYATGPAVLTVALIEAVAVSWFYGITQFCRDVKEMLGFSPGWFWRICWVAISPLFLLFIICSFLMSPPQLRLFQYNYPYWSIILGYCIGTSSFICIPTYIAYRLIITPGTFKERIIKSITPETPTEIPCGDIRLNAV
Procedure, shortened: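 Radioligand competition binding with scintillation detection; specific binding is total minus binding under excess unlabelled ligand. Reported as % of control specific binding or % inhibition; IC50 from Hill-equation non-linear regression of competition curves, and Ki via Cheng-Prusoff using radioligand concentration and Scatchard-derived KD.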

[4] = target: T3, 5-HT2A receptor (Homo sapiens, UniProt P28223); experiment: Radioligand binding assay, serotoninergic 5-HT2A receptors; settings: binding assay result in %, Table 5a
T3 construct: purchased PerkinElmer
T3 sequence (P28223 whole entry): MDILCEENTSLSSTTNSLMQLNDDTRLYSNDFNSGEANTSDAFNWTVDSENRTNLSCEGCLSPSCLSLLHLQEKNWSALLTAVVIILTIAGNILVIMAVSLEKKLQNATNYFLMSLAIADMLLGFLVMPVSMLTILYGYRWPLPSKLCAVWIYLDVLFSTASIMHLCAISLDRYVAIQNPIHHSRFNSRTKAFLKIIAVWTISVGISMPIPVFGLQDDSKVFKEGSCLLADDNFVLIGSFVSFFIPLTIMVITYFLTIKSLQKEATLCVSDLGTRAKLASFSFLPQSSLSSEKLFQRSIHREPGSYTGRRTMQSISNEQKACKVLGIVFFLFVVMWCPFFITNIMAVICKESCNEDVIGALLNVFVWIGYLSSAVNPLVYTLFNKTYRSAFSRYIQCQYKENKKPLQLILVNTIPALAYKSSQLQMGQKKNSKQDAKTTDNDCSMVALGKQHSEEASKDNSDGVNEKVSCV
Procedure, shortened: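 Radioligand competition binding with scintillation counting; nonspecific binding defined by excess unlabelled ligand. Data as percent inhibition of control specific binding. IC50 by Hill-equation fit of competition curves; Ki by Cheng-Prusoff, with radioligand Kd from Scatchard plot.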

[5] = target: T4, 5-HT7 receptor (Homo sapiens, UniProt P34969); experiment: Radioligand binding assay, serotoninergic 5-HT7 receptors; settings: binding assay result in %, Table 5a;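 note: test compound at 1 µM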
T4 construct: purchased PerkinElmer
T4 sequence (P34969 whole entry): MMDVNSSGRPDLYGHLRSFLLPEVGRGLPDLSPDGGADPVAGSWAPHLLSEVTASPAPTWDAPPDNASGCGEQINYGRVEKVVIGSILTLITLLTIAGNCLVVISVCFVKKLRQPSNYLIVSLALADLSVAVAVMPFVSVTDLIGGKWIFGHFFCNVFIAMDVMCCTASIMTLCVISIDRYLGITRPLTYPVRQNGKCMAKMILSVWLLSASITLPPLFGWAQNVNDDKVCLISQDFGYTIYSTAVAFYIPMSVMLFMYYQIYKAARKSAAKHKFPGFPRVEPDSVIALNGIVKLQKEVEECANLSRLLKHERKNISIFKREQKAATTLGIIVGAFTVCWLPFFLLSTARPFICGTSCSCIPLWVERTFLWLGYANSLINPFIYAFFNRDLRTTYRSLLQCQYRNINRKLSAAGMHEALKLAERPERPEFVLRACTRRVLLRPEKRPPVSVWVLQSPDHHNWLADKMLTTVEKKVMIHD
Procedure, shortened: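 Competition binding at human 5-HT7 receptors with a radioligand, detected by scintillation counting; non-specific binding was defined with excess unlabelled ligand. IC50 came from Hill-equation fits of competition curves, and Ki from Cheng–Prusoff using radioligand concentration and Scatchard-derived KD.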

[6] = test system: α1 adrenergic receptors (rat cerebral cortex); experiment: Radioligand binding assay, adrenergic α1 receptors; settings: test compound 1×10^−6 M
Description: The specific ligand binding to the receptors is defined as the difference between the total binding and the non-specific binding determined in the presence of the excess of unlabelled ligand.
The results are expressed as a percent of control specific binding ((measured specific binding/control specific binding)×100) and as a percent inhibition of control specific binding (100−((measured specific binding/control specific binding)×100)) obtained in the presence of the test compounds. The specific ligand binding to the receptors is defined as the difference between the total binding and the nonspecific binding determined in the presence of an excess of unlabelled ligand. Scintillation counting was the method of detection of ligand binding. The IC50 values (concentration causing a half-maximal inhibition of control specific binding) were determined by non-linear regression analysis of the competition curves generated with mean replicate values using Hill equation curve fitting (Y=D+[(A−D)/(1+(C/C50)nH)], where Y=specific binding, D=minimum specific binding, A=maximum specific binding, C=compound concentration, C50=IC50, and nH=slope factor). […] The inhibition constants (Ki) were calculated using the Cheng Prusoff equation (Ki=IC50/(1+(L/KD)), where L=concentration of radioligand in the assay, and KD=affinity of the radioligand for the receptor). A scatchard plot was used to determine the Kd.

[7] = target: T5, 5-HT6 receptor (Homo sapiens, UniProt P50406); experiment: Radioligand binding assay, serotoninergic 5-HT6 receptors; settings: binding assay result in %, Table 5a;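 note: test compound at 1 µM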
T5 construct: purchased PerkinElmer
T5 sequence (P50406 whole entry): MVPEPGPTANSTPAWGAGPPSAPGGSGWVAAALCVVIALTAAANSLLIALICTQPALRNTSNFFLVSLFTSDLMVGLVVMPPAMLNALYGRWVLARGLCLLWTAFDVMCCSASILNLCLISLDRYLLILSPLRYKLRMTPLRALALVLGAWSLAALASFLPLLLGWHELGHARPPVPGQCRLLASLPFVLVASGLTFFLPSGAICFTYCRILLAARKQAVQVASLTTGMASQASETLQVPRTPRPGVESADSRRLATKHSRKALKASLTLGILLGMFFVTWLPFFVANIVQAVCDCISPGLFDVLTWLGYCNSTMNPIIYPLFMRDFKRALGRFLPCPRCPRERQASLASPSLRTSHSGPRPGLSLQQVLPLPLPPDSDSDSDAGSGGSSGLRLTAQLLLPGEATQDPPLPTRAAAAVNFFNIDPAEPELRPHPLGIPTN
Procedure, shortened: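 Values are Ki from Cheng–Prusoff, taking IC50 from Hill nonlinear regression of competition curves and KD from a Scatchard plot. Specific binding was total minus binding with excess unlabelled ligand. Radioligand displacement was detected by scintillation counting, and data were also reported as percent of control specific binding.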

[8] = target: dopaminergic receptors D2 (Homo sapiens, UniProt P14416); experiment: Radioligand binding assay, dopaminergic D2 receptors; settings: binding assay, test compound 1×10^−6 M
dopaminergic receptors D2, sequence (P14416 whole entry): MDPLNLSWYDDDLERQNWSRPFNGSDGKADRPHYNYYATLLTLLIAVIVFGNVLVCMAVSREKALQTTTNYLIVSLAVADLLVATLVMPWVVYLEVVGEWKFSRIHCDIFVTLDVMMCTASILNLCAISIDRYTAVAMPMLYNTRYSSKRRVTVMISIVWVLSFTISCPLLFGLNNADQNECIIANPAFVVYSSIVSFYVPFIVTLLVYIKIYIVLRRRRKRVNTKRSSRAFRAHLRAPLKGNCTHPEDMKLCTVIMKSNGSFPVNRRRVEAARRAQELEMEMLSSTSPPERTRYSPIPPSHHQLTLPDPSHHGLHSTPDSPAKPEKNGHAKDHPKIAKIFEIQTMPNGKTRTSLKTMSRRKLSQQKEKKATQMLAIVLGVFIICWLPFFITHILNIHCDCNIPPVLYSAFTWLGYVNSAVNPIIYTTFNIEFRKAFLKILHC
Procedure, shortened: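 Total binding is counted by scintillation and non-specific binding subtracted using an excess of unlabelled ligand. IC50 comes from a Hill-equation fit with slope factor; Ki follows Cheng–Prusoff.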

Compound | inhibition at 1 µM [1] [%] | inhibition at 1 µM [2] [%] | inhibition at 1 µM [3] [%] | inhibition at 1 µM [4] [%] | inhibition at 1 µM [5] [%] | α1 [%] [6] [%] | inhibition at 1 µM [7] [%] | inhibition at 1 µM [8] [%] | 5-HT1A [%] [1] [%] | D3 [%] [2] [%] | SERT [%] [3] [%] | 5-HT2A [%] [4] [%] | 5-HT7 [%] [5] [%] | 5-HT6 [%] [7] [%] | D2 [%] [8] [%]
O=S(=O)(NC1CCN(CCCc2c[nH]c3ccc(Cl)cc23)C1)c1ccc2ccccc2c1 (stereo not drawn) [Compound 87, N-[1-[3-(5-Chloro-1H-indol-3-yl)propyl]pyrrolidin-3-yl]naphthalene-2-sulphonamide] | 105 | 86 | 64 | 78 | 71 | 18 | 91 | 63 | – | – | – | – | – | – | –
O=S(=O)(NCC1CCN(CCOc2cccc3ccccc23)C1)c1csc2ccccc12 (stereo not drawn) [Compound 276, N-[[1-[2-(1-Naphthyloxy)ethyl]pyrrolidin-3-yl]methyl]benzothiophene-3-sulphonamide] | 81 | 91 | 84 | 92 | 82 | 16 | 84 | 41 | – | – | – | – | – | – | –
N-[1-[3-(6-Fluoro-1,2-benzoxazol-3-yl)propyl]pyrrolidin-3-yl]benzene-sulphonamide [Compound 6] | – | – | – | – | – | 98 | – | – | 14 | 8 | 18 | 77 | 83 | 44 | 70
N-[1-[3-(6-Fluoro-1,2-benzoxazol-3-yl)propyl]pyrrolidin-3-yl]-1,3-benzothiazole-4-sulphonamide [Compound 31] | – | – | – | – | – | 100 | – | – | 58 | 27 | 36 | 84 | 89 | 76 | 87
O=S(=O)(NCC1CN(CCOc2cccc3c2OCCO3)C1)c1ccc(I)cc1 [Compound 193, N-[[1-[2-(2,3-Dihydro-1,4-benzodioxin-5-yloxy)ethyl]azetidin-3-yl]methyl]-4-iodo-benzenesulphonamide] | 84 | 55 | 41 | 88 | 92 | 71 | 9 | 81 | – | – | – | – | – | – | –
N#Cc1ccc(S(=O)(=O)NC2CCN(CCCc3noc4cc(F)ccc34)C2)cc1 (stereo not drawn) [Compound 210, 4-Cyano-N-[1-[3-(6-fluoro-1,2-benzoxazol-3-yl)propyl]pyrrolidin-3-yl]benzenesulphonamide] | 8 | 27 | 35 | 80 | 80 | 94 | 68 | 64 | – | – | – | – | – | – | –
Cc1c(S(=O)(=O)NCC2CN(CCOc3cccc4ccccc34)C2)sc2ccc(F)cc12 [Compound 166, 5-Fluoro-3-methyl-N-[[1-[2-(1-naphthyloxy)ethyl]azetidin-3-yl]methyl]benzothiophene-2-sulphonamide] | 78 | 101 | 32 | 100 | 97 | 23 | 98 | 82 | – | – | – | – | – | – | –
O=S(=O)(NC1CN(CCOc2cccc3c2OCCO3)C1)c1ccc(F)cc1 [Compound 90, N-[1-[2-(2,3-Dihydro-1,4-benzodioxan-8-yloxy)ethyl]azetidin-3-yl]-4-fluoro-benzenesulphonamide] | – | – | – | – | – | −25 | – | – | 82 | −7 | 18 | 49 | 92 | −16 | 5
O=S(=O)(NCC1CN(CCOc2cccc3ccccc23)C1)c1ccc2cc(Cl)ccc2c1 [Compound 165, 6-Chloro-N-[[1-[2-(1-naphthyloxy)ethyl]azetidin-3-yl]methyl]naphthalene-2-sulphonamide] | 87 | 100 | 111 | 99 | 105 | 15 | 97 | 66 | – | – | – | – | – | – | –
Cc1ccc(S(=O)(=O)NCC2CCN(CCOc3cccc4c3OCCO4)C2)cc1 (stereo not drawn) [Compound 291, N-[[1-[2-(2,3-Dihydro-1,4-benzodioxin-5-yloxy)ethyl]pyrrolidin-3-yl]methyl]-4-methyl-benzenesulphonamide] | 94 | 33 | 66 | 63 | 80 | 66 | 19 | 29 | – | – | – | – | – | – | –
Cc1c(S(=O)(=O)NCC2CN(CCOc3cccc4c3OCCO4)C2)sc2ccc(Cl)cc12 [Compound 175, 5-Chloro-N-[[1-[2-(2,3-dihydro-1,4-benzodioxin-5-yloxy)ethyl]azetidin-3-yl]methyl]-3-methyl-benzothiophene-2-sulphonamide] | 75 | 78 | 19 | 105 | 92 | 50 | 95 | 68 | – | – | – | – | – | – | –
Cc1cccc(S(=O)(=O)NC2CCN(CCOc3cccc4c3OCCO4)C2)c1 (stereo not drawn) [Compound 97, N-[1-[2-(2,3-Dihydro-1,4-benzodioxan-8-yloxy)ethyl]pyrrolidin-3-yl]-3-methylbenzenesulphonamide] | – | – | – | – | – | 64 | – | – | 84 | 40 | −1 | 89 | 105 | 43 | 29
O=S(=O)(NC1CCN(CCCc2c[nH]c3ccc(Cl)cc23)C1)c1ccc(F)cc1 (stereo not drawn) [Compound 83, N-[1-[3-(5-Chloro-1H-indol-3-yl)propyl]pyrrolidin-3-yl]-4-fluoro-benzenesulphonamide] | 104 | 76 | 78 | 82 | 86 | 23 | 84 | 44 | – | – | – | – | – | – | –
O=S(=O)(NC1CCN(CCOc2cccc3[nH]ccc23)C1)c1ccc2ccccc2c1 (stereo not drawn) [Compound 54, N-[1-[2-(1H-Indol-4-yloxy)ethyl]pyrrolidin-3-yl]naphthalene-2-sulphonamide] | 90 | 105 | 46 | 88 | 102 | 90 | 87 | 83 | – | – | – | – | – | – | –
O=S(=O)(NC1CN(CCOc2cccc3c2OCCO3)C1)c1cccc(Cl)c1 [Compound 91, 3-Chloro-N-[1-[2-(2,3-dihydro-1,4-benzodioxan-8-yloxy)ethyl]azetidin-3-yl]benzenesulphonamide] | – | – | – | – | – | −15 | – | – | 88 | −8 | −4 | 47 | 91 | −20 | 15
